From ChEMBL document CHEMBL1148995, “Antitumor agents from bohemic acid complex, VI. Schaunardimycin” (J Nat Prod, 1984) come the findings set out here.

Structures are written as SMILES.

Data set [1] deals with L1210. Briefly: Antitumor activity against mouse L1210 cells implanted in CDF1 mouse assessed as median survival time at 12.8 mg/kg, ip single dose on day 1. The data set is classed as functional. To be noted: route intraperitoneal.
Data set [2] has as its system L1210. Briefly: Antitumor activity against mouse L1210 cells implanted in CDF1 mouse assessed as median survival time at 0.8 mg/kg, ip single dose on day 1. The data set is classed as functional. To be noted: route intraperitoneal.
The test system of data set [3] is L1210. Briefly: Antitumor activity against mouse L1210 cells implanted in CDF1 mouse at 12.8 mg/kg, ip single dose on day 1 relative to control. The data set is classed as functional. The note with it: route intraperitoneal.
Data set [4] deals with L1210. Briefly: Antitumor activity against mouse L1210 cells implanted in CDF1 mouse at 6.4 mg/kg, ip single dose on day 1 relative to control. It counts as functional. The note with it: route intraperitoneal.
Data set [5] relates to L1210. Briefly: Antitumor activity against mouse L1210 cells implanted in CDF1 mouse at 3.2 mg/kg, ip single dose on day 1 relative to control. The data set is classed as functional. The note with it: route intraperitoneal.
Data set [6] has as its system L1210. Briefly: Antitumor activity against mouse L1210 cells implanted in CDF1 mouse at 0.8 mg/kg, ip single dose on day 1 relative to control. The data set is classed as functional. The note with it: route intraperitoneal.
Data set [7] has as its system Mus musculus. Briefly: Toxicity in mouse L1210 cells implanted CDF1 mouse assessed as average weight gain at 3.2 mg/kg, ip single dose on day 1. It counts as organism-based. Set-up: dose 3.2 mg/kg, route intraperitoneal. The note with it: in vivo.
In data set [8] the test system is Mus musculus. Briefly: Toxicity in mouse L1210 cells implanted CDF1 mouse assessed as average weight gain at 0.8 mg/kg, ip single dose on day 1. Set-up: dose 0.8 mg/kg, route intraperitoneal. The data set is classed as organism-based. The note with it: in vivo.
Data set [9] concerns Mus musculus. Briefly: Toxicity in mouse L1210 cells implanted CDF1 mouse assessed as average weight gain at 0.4 mg/kg, ip single dose on day 1. The note with it: in vivo. It counts as organism-based. Set-up: dose 0.4 mg/kg, route intraperitoneal.
In data set [10] the test system is Mus musculus. Briefly: Toxicity in mouse L1210 cells implanted CDF1 mouse assessed as survivors on day 5 at 12.8 mg/kg, ip single dose on day 1. The data set is classed as organism-based. Set-up: dose 12.8 mg/kg, route intraperitoneal. The note with it: in vivo.
The subject of data set [11] is Mus musculus. Briefly: Toxicity in mouse L1210 cells implanted CDF1 mouse assessed as survivors on day 5 at 0.2 mg/kg, ip single dose on day 1. It counts as organism-based. Set-up: dose 0.2 mg/kg, route intraperitoneal. To be noted: in vivo.
For data set [12], the system named is Mus musculus. Briefly: Toxicity in mouse L1210 cells implanted CDF1 mouse assessed as survivors on day 5 at 1.6 mg/kg, ip qd for 1 to 5 days. The data set is classed as organism-based. Set-up: dose 1.6 mg/kg, route intraperitoneal. The note with it: in vivo.
Data set [13] deals with Mus musculus. Briefly: Toxicity in mouse L1210 cells implanted CDF1 mouse assessed as survivors on day 5 at 0.4 mg/kg, ip qd for 1 to 5 days. The note with it: in vivo. Set-up: dose 0.4 mg/kg, route intraperitoneal. The data set is classed as organism-based.
Data set [14] has as its system Mus musculus. Briefly: Toxicity in mouse L1210 cells implanted CDF1 mouse assessed as survivors on day 5 at 0.2 mg/kg, ip qd for 1 to 5 days. The data set is classed as organism-based. Set-up: dose 0.2 mg/kg, route intraperitoneal. To be noted: in vivo.
For data set [15], the system named is L1210. Briefly: Antitumor activity against mouse L1210 cells implanted in CDF1 mouse at 0.2 mg/kg, ip qd for 1 to 5 days relative to control. It counts as functional. To be noted: route intraperitoneal.

As to `CC[C@@]1(O)C[C@H](O[C@H]2C[C@H](NC)[C@H](O[C@H]3C[C@H](O)[C@H](O)[C@H](C)O3)[C@H](C)O2)c2c(cc3c(c2O)C(=O)c2c(O)ccc(O)c2C3=O)[C@H]1C(=O)OC` [SCHAUNARDIMYCIN], the MST in the data set on L1210 [1] turned out to be 8 days; in the data set with L1210 [2], 6 days. Also, the T/C (usually the result in the treated group divided by that in the control group, in per cent) in the data set with L1210 [3] was 133%; in the data set with L1210 [4], 117%; in the data set with L1210 [5] it was 117%; with L1210 [6], 100%; in the data set with L1210 [15], 117%. The Activity with Mus musculus [7] is 3.2 g; with Mus musculus [10] it was “Active”; in the data set on Mus musculus [11] it was “Active”; with Mus musculus [12], “Active”; in the data set on Mus musculus [13], “Active”; in the data set on Mus musculus [14] it was “Active”. Also, the weight gain in the data set with Mus musculus [8] and in the data set on Mus musculus [9] was 2.8 g in each case.
